The values that follow come from patent publication US8268767B2, “Personal wash cleanser comprising defined alkanoyl compounds, defined fatty acyl isethionate surfactant product and skin or hair benefit agent” (priority 2010, dated 2012).

The series relates to skin (patch test sites on the intrascapular area of the back). In words: Patch Test, 14-day cumulative irritation test. To be noted: for Patch test Total irritation score: cleansers diluted to 25% w/w, 14-day cumulative score. As for the experimental part:
This was randomized, double-blind study. A sufficient number of subjects were recruited to ensure that 25 subjects completed the study. The 14-day cumulative irritation test was conducted as follows. Patching occurred for 14 consecutive days, except on Sundays. Patches applied on Saturday were left in place until Monday, when freshly prepared patches were applied. The designated patch test sites were approximately 2 cm×2 cm on the intrascapular area of the back. Approximately 0.2 mL of the test product was placed onto a Parke-Davis Readi-Bandage® occlusive patch that measured 2 cm×2 cm. Solutions were made by diluting the cleansers to 25% w/w in distilled water. The patch was then applied to the designated test site. The patches were secured with hypoallergenic tape (Scanpor {Allerderm} as needed). A 0.5% sodium dodecyl sulfate (SDS) solution was used as the control in the test.
Each day following application, the patches were removed, the sites evaluated and identical patches reapplied to the same test sites. All evaluations were made using the following 6-point scoring system: • 0=No evidence of any effect • +=Barely perceptible (minimal, faint, uniform or spotty erythema) numerically equivalent to 0.5 • 1=Mild (pink, uniform erythema covering most of the contact site) • 2=Moderate (pink-red, erythema uniform in the entire contact site) • 3=Marked (bright red erythema with/without petechiae or papules) • 4=Severe (deep red erythema with/without vesiculation or weeping)
If a dermal reaction of 3 or 4 occur with any of the test articles at any point during the study, further patch testing on that subject was terminated at the test site involved, and the attained score was assigned to that site for the subsequent scheduled test days.
Cumulative irritation scores, which were the sum of the numerical irritation grades assigned daily during the 14-day test period, were calculated at the end of the study to compare mildness of the test products. […] The data were statistically analyzed using Tukey-Kramer Comparison, and statistical significance was determined at the 95% confidence level.

Setting [1] is: first patch test of Table 1 (0.5% SDS control = 783).
Setting [2] is: second patch test of Table 1 (0.5% SDS control = 912).

Each structure is given as a SMILES string.

With `CCCCCCCCCCCCOS(=O)(=O)[O-].[Na+]` [0.5% SDS Solution, sodium dodecyl sulfate], under setting [1], the “Total irritation score compared to 0.5% SDS solution” value is recorded as 100% and the “Patch test Total irritation score” value was determined as 783. Under setting [2], the “Total irritation score compared to 0.5% SDS solution” value stood at 100% and the “Patch test Total irritation score” value came to 912.
